Data published in patent US20260041637A1, “VESICLES BASED ON GLUCOSE-DERIVED SURFACTANTS AND PHYTOSTEROLS” (NANOMOL TECHNOLOGIES, S.L., priority 2022, published 2026).

Assays:
[1] = Entrapment efficiency (EE) by fluorescence spectroscopy (proteins); assay type: physicochemical
Method: iii) Entrapment efficiency (EE) by fluorescence spectroscopy: Entrapment efficiency (EE) of both proteins was determined by fluorescence spectroscopy using a Varian Cary Eclipse (Agilent Technolo-gies, Santa Clara, USA). In both cases, the separation of the non-integrated protein from that integrated in Vs was done by TFF (KrosFlo® Research 11i TFF diafiltration system (KR2i), with a mPES filter hollow column cut-off 300 KDa (C04-E100-05-N, Spectrum Labs, SL). Then, the permeate fraction was recovered and analyzed by fluorescence, exciting the proteins at 278 nm. The concentration was calculated using a calibration curve using the same media of the corresponding Vs system. The entrapment efficiency was then calculated using Equation 2, as described herein.

[2] = Antioxidant capacity by 2,2-diphenyl-1-picrylhydrazyl (DPPH) assay; assay type: biochemical; settings: molar ratio DPPH:TCP 1:0.3, 30 minutes in the dark, 517 nm; mean ± s.d. of two independent experiments
Method: DPPH assay is a well-known and established method to measure antioxidant capacity of a molecule. […] When DPPH is in its oxidated form presents a violet color that changes to yellow/white when is reduced. This color change can be followed using UV-Vis spectroscopy. The assay was carried out in ethanol always maintaining a molar ratio DPPH: TCP of 1:0.3. In order to have 3 mL of final volume, DPPH was diluted in ethanol to have a final concentration of 63.4 μM. Free TCP and TCP DELOS-NVs were diluted to have a final concentration of 19 µM of TCP. Each solution was then mixed and kept at room temperature for 30 minutes in the dark. The absorbance of the solution was measured at 517 nm using a Thermo Scientific™ Evolution™ 201/220 UV-Visible spectrophotometer (Thermo Scientific). The percentage of TCP antioxidant capacity was calculated using the Equation 3, where Abscontrol is the absorbance at 517 nm of DPPH in ethanol and Abssample is the absorbance at 517 nm of the sample prepared as described (free TCP or TCP DELOS-NVs with DPPH).
The antioxidant capacity of TCP was evaluated once it was integrated in the NVs to verify that the molecule was still active after the encapsulation. The antioxidant capacity was measured by the 2,2-diphenyl-1-picrylhydrazyl (DPPH) assay. DPPH is a stable free radical that can be reduced in the presence of hydrogen-donating antioxidants such as TCP. […]

[3] = Entrapment efficiency (EE) by UV-Vis spectroscopy; assay type: physicochemical
Method: Entrapment efficiency (EE) of each active was determined by UV-Vis absorbance using an UV-Vis spectrophotometer (Thermo Scientific™ Evolution™ 201 UV-Visible Spectrophotometers, Thermo Scientific). For lipophilic actives (7-DHC, CBD, TCP, DiD and Dil) Vs membrane was dissociated to release the active by diluting the sample in ethanol at 80% (v/v) until a value of absorption below 1 and inside the calibration curve obtained. The concentration of each active was determined using a calibration curve, using the same media than the corresponding Vs system. The active was quantified before and after filtering process and both values were used to calculate the EE using Equation 1 (as described herein). As the lipophilic molecules are not soluble in aqueous media, it was considered that the filtered sample contained only the integrated active, since all the precipitated and non-integrated active should remain in the filter.
A different protocol was followed for hydrophilic actives (NCA, AG and MTX), in which, after the Vs filtration process, another step was applied to separate the non-integrated active. For NCA and AG, an ultracentrifugation step of the filtered sample was performed (6h, 4° C., 600000g) (Sorvall Discovery M150 Micro-Ultracentrifuge, Thermo Scientific). […]

HGH: Human growth hormone, small protein, encapsulated active
EE [%] ([1]; protein (HGH) in Sit:LGL-p:DC-Chol (0.8:1:0.2) Vs): over 99%

b-FGF: basic fibroblast growth factor, small protein, encapsulated active
EE [%] ([1]; protein (b-FGF) in negatively charged Sit:LGC (1:1) Vs): > 99%

Cc1c(C)c2c(c(C)c1O)CCC(C)(CCCC(C)CCCC(C)CCCC(C)C)O2 (racemic) [Free TCP, DL-alpha-Tocopherol]
Antioxidant capacity (%) [2]: 60 ± 9%

C=C(C)[C@@H]1CCC(C)=C[C@H]1c1c(O)cc(CCCCC)cc1O [CBD, cannabidiol]
EE [%] ([3]; active-loaded Sit:LGC (1:1) and Sit:LGL:LGC (1:0.8:0.2) Vs): 22-33%

CN(Cc1cnc2nc(N)nc(N)c2n1)c1ccc(C(=O)N[C@@H](CCC(=O)O)C(=O)O)cc1 [MTX, Methotrexate]
EE [%] ([3]; active-loaded Sit:LGL-p:DC-Chol (0.8:1:0.2) Vs): 88%
